Several values for one entry are separate records, joined by “and”; a condition that tells them apart may be missing. Equal entries are not always repeated. Entries after “also recorded” stand apart in the source; their conditions may differ. Where two headings read alike, the source gives them in different places. Blank lines part the entries; values can stand above or below the molecule they belong to. Residues, ends and D or L forms follow the SMILES beside them. No end group written: not given here. ξ: configuration not given here. *: point of attachment. ξGly(tetradecyl) = CCCCCCCCCCCCCCC(N)C(=O)O; Myristoyl = CCCCCCCCCCCCCC(=O)*; X1 = CCCCCCCCCCCCCCC(S)C(=O)*
Key:
HDAC11 [1] = molecular target: T1, HDAC11 (Homo sapiens, UniProt Q96DB2); assay: HDAC11 inhibition, continuous fluorescence-based assay with fatty-acylated peptide substrate; format: biochemical; conditions: for IC50: substrate Ac-EALPK(11-Abz-Aun)KY(3-NO2)GG-NH2 20 µM, triplicate, read-out: IC50 against HDAC11; for IC50 increase compared to 28: HDAC11
T1 sequence (Q96DB2 1-347): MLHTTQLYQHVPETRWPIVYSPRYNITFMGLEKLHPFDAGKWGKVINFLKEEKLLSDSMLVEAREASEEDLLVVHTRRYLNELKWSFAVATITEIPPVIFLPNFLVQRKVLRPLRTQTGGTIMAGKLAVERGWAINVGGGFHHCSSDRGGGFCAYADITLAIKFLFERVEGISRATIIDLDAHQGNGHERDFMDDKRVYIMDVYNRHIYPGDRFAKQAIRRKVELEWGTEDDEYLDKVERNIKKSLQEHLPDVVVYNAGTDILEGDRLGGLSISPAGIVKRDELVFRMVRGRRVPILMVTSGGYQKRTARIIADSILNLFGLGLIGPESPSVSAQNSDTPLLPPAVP
Experimental: Inhibition of the enzymatic activity of HDACs was performed continuously for HDAC8, HDAC11, and SIRT2 and discontinuously for SIRT2, 3, and 6 using adequate substrates as described previously. , Experimental details are given in the Supporting Information.
A. HDAC and SIRT deacylase activity assays
Continuous in vitro HDAC inhibition assays
The inhibitors were tested using 384-well plates (GreinerONe). After 5 min of incubation of the inhibitors together with the respective enzymes (HDAC8 = 2 nM, HDAC11 = 20 nM, SIRT2 = 1 nM), the reactions were always started by the addition of substrate for the Zn2+-dependent HDAC and by the addition of NAD+ for SIRT2. The reactions were performed in either HDAC8 buffer (20 mM HEPES, 140 mM NaCl, 10 mM MgCl 2, 1 mM tris(2-carboxyethyl)phosphine (TCEP), and 0.2 mg/ml BSA, pH 7.4 adjusted with NaOH), HDAC11 buffer (20 mM HEPES, 70 µM TCEP and 2 mg/ml BSA, pH 7.4 adjusted with NaOH) or SIRT buffer (20 mM Tris, 150 mM NaCl, 5 mM MgCl2 and 2 mg/ml BSA pH 7.8 adjusted with HCl), respectively. The thiotrifluoracetylated substrate Abz-SRGGK(thio-TFA)FFRR-NH2 (50 µM) […]
Aun is N-(2-aminobenzoyl)-11-aminoundecanoyl, was used for HDAC11 and Ac-EALPKK(Myr)T-C(Fluorescein)-G-NH2 (40 nM) was used for SIRT2 1-3.
The fluorescence increase was followed for 1 h with two reads per min using a PerkinElmer Envision […]
The excitation wavelength for HDAC8 and 11 was 320 ± 8 nm and the […]
Positive (enzyme, substrate, DMSO, and buffer) and negative
(substrate, DMSO, and Buffer) controls were included in every measurement and were set as 100% and 0%, respectively. The measured values were normalized accordingly. All tests were performed in triplicates. The data were fitted using the GraphPad Prism8 software and kinetic values calculated through non-linear regression analysis. […]

HDAC11 [2] = molecular target: T1, HDAC11; design: method as in not printed per compound; conditions: literature values, Figure 1; ref not printed per compound; read-out: IC50 as reported for HDAC11; cited from earlier work
HDAC11 [3] = molecular target: T1, HDAC11; design: method as in number not given; conditions: myristoylated 12-mer peptide; ref number not given; read-out: KM value as substrate of HDAC11; cited from earlier work
HDAC11 [4] = molecular target: T1, HDAC11; assay: Substrate assay: incubation with HDAC11, UPLC-MS analysis of cleavage product; format: biochemical; conditions: 50 μM compound, 10 or 100 nM HDAC11, 37 °C, 24 h
Experimental: Because acylated H3K9 peptides are known to be substrates of HDAC11, , it had to be analyzed if the presence of a substitution in close proximity to the hydrolyzable amide bond is sufficient to suppress the deacylation of the compound by HDAC11, thereby transforming a substrate into an inhibitor. Accordingly, 50 μM of the most promising compounds, specifically 2, 10, 17, and 18, were incubated in the presence of 10 or 100 nM of HDAC11 at 37 °C for 24 h, followed by UPLC–MS analysis. […] Consequently, compounds 17 and 18 were excluded from further analyses.
The peptides were incubated at 50 μM, together with 10 or 100 nM HDAC11 in HDAC11 buffer for 24 h at 37 °C. The solution was then analyzed using UPLC–MS.
F. UPLC-MS Data of the substrate test
In order to ascertain whether peptides 2, 10, 17 and 18 are possible substrates of HDAC11, 50 µM of the peptides were incubated with 100 nM HDAC11 for 24 hours at 37°C. Subsequently, a sample of the solutions was subjected to analysis using UPLC-MS. The presence of the double-charged peptide representing the expected cleavage product Ac-TARKSTG-NH2 of 2, 10, 17 and 18 with the m/z ratio of [M+2H]2+ (381.45) was taken as an indicator of a HDAC11-catalysed reaction. […]
exclusively HDAC11 in the assay buffer. No signal indicative for the product peptide was detected. […]
Absorbance at 220 nm is shown. […]

[5] = Stability in aqueous solution; format: physicochemical; conditions: 37 °C for 24 h
[6] = system: global protein fatty acylation; design: method as in previous studies (number not given); conditions: treatment with pan-HDAC inhibitor; ref previous studies (number not given); cited from earlier work
HDAC11 [7] = molecular target: T1, HDAC11; assay: Microscale thermophoresis (MST) binding; conditions: 20 nM 32, varying concentrations of HDAC11, 25 °C
Experimental: Microscale thermophoresis (MST) was performed using a Monolith NT.115 (Nanotemper) with standard capillaries (MO-K022). The reaction solution contained a dilution series (1:1) of 16 different concentrations of HDAC11 (0.48 nM to 16 μM) and 20 nM 32 in MST buffer (20 mM MOPS buffer (pH 7.4 adjusted with NaOH), 0.2 mg/mL BSA, and 70 μM TCEP) and 5% (v/v) DMSO. After 5 min of incubation, the samples were loaded into capillaries and measured at 25 °C with a Filter Nano-BLUE at an excitation power of 20% and an MST power of 40%. The resulting data were fitted by MO.Affinity Analysis software (Nanotemper) via MST curves and fluorescence signals.

Molecule: CCCCCOCCCCCNNC(=O)c1ccc(CNC(=O)c2ccccc2)cc1 [Compound B6]
- IC50 (HDAC11 [2]): 51.1 nM

Molecule: KQTARK(Myristoyl)STGGWW [H3K9(Myr)]
- Km (HDAC11 [3]): 17.3 µM

Molecule: CCCCCCCCCCCCCCC(S)C(=O)NCCCC[C@H](NC(=O)[C@H](CCCNC(=N)N)NC(=O)[C@H](C)NC(=O)[C@@H](NC(C)=O)[C@@H](C)O)C(=O)N[C@@H](CO)C(=O)N[C@H](C(=O)NCC(N)=O)[C@@H](C)O (stereo partly shown) [Compound 2] (Ac-TARK(X1)STG-NH2; N-terminus and C-terminus assumed)
- Substrate properties / hydrolysis by HDAC11 (HDAC11 [4]): no single recognisable peak is present at the expected time; also recorded: not able to hydrolyze
- Stability in aqueous solution [5]: completely stable

Molecule: C/C=C1\NC(=O)[C@H]2CSSCC/C=C/[C@H](CC(=O)N[C@H](C(C)C)C(=O)N2)OC(=O)[C@H](C(C)C)NC1=O [Romidepsin (FK-228), Romidepsin]
- IC50 (HDAC11 [2]): 2700 nM

Molecule: O=C(CCCCCCC(=O)Nc1ccccc1)NO [Vorinostat (SAHA), vorinostat]
- Global protein fatty acylation [6]: decrease in global protein fatty acylation

Molecule: CCCCCCCCCCCCSC[C@@H](N)C(=O)NCCCC[C@H](NC(=O)[C@H](CCCCN)NC(=O)CCC(=O)NCCCOCCOCCOCCCNC(=O)c1ccc2c(c1)C(=O)OC21c2ccc(O)cc2Oc2cc(O)ccc21)C(N)=O [Compound 32]
- IC50 (HDAC11 [1]): 537 nM
- Kd (HDAC11 [7]): 271 nM and 270 nM

Molecule: CCCCCCCCCCCCCCC(N)C(=O)NCCCC[C@H](NC(=O)[C@H](CCCNC(=N)N)NC(=O)[C@H](C)NC(=O)[C@@H](NC(C)=O)[C@@H](C)O)C(=O)N[C@@H](CO)C(=O)N[C@H](C(=O)NCC(N)=O)[C@@H](C)O (stereo partly shown) [Compound 10] (Ac-TARK(ξGly(tetradecyl))STG-NH2; N-terminus and C-terminus assumed)
- Substrate properties / hydrolysis by HDAC11 (HDAC11 [4]): no single recognisable peak is present at the expected time; also recorded: not able to hydrolyze
- Stability in aqueous solution [5]: completely stable

The next lines start with the values.

- IC50 (HDAC11 [1]): 399 ± 60 nM
Molecule: CCCCCCCCSC[C@@H](N)C(=O)NCCCCC [Compound 26]

- IC50 (HDAC11 [1]): 150 ± 10.7 nM
Molecule: CCCCCCCCCCSC[C@@H](N)C(=O)NCCCCC [Compound 27]

- IC50 (HDAC11 [1]): 904 ± 118 nM
Molecule: CCCCCCSC[C@@H](N)C(=O)NCCCCC [Compound 25]

- IC50 increase compared to 28 (HDAC11 [1]): more than 10 fold
Molecule: CCCCCCCCCCCCSC[C@@H](N)C(=O)N1Cc2ccccc2C1 [Compound 30]

- IC50 (HDAC11 [1]): 56.1 ± 6 nM
Molecule: CCCCCCCCCCCCSC[C@@H](N)C(=O)NCCCCC [Compound 28]

- IC50 increase compared to 28 (HDAC11 [1]): more than 10 fold
Molecule: CCCCCCCCCCCCSC[C@@H](N)C(=O)NCc1cn(C)nn1 [Compound 29]
